# From patent US11135234B2, “Effective aminoglycoside antibiotic for multidrug-resistant bacteria” (MICROBIAL CHEMISTRY RESEARCH FOUNDATION, priority 2015, dated 2021)
# How the values were obtained:
# [1] = system: K. pneumoniae ATCC BAA-1705; assay: MIC, agar plate dilution method, K. pneumoniae ATCC BAA-1705; assay type: cell-based, Klebsiella pneumoniae; details: for MIC: Klebsiella pneumoniae, ATCCBAA1705, K. pneumoniae ATCC BAA-1705, KPC-producing strain, read-out: minimal inhibitory concentration (MIC)
# Method in brief: (§1)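 Japan Society of Chemotherapy agar dilution protocol used. MIC reported in μg/mL.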
# [2] = system: A. baumannii ATCC BAA-1710; assay: MIC, agar plate dilution method, A. baumannii ATCC BAA-1710; assay type: cell-based, Acinetobacter baumannii; details: for MIC: Acinetobacter baumannii, ATCCBAA1710, A. baumannii ATCC BAA-1710, MDRA, read-out: minimal inhibitory concentration (MIC)
# Method in brief: as §1
# S. aureus MF490 = assay: MIC, agar plate dilution method, S. aureus MF490; assay type: cell-based, Staphylococcus aureus; details: for MIC: Staphylococcus aureus, MRSA, read-out: minimal inhibitory concentration (MIC)
# Method in brief: as §1
# E. coli JM109/pMW218 = assay: MIC, agar plate dilution method, E. coli JM109/pMW218; assay type: cell-based, Escherichia coli; details: for MIC: Escherichia coli, JM109/PMW218, E. coli JM109/pMW218, Sensitive bacterium, read-out: minimal inhibitory concentration (MIC)
# Method in brief: as §1
# S. aureus RN4220 = assay: MIC, agar plate dilution method, S. aureus RN4220; assay type: cell-based, Staphylococcus aureus; details: for MIC: Staphylococcus aureus, RN4220, S. aureus RN4220, Sensitive bacterium, read-out: minimal inhibitory concentration (MIC)
# Method in brief: as §1
# S. marcescens GN6944 = assay: MIC, agar plate dilution method, S. marcescens GN6944; assay type: cell-based, Serratia marcescens; details: S. marcescens GN6944, GM-resistant; for MIC: Serratia marcescens, read-out: minimal inhibitory concentration (MIC)
# Method in brief: as §1
# S. marcescens TH-0447 = assay: MIC, agar plate dilution method, S. marcescens TH-0447; assay type: cell-based, Serratia marcescens; details: for MIC: Serratia marcescens, TH0447, S. marcescens TH-0447, AMK-resistant, read-out: minimal inhibitory concentration (MIC)
# Method in brief: as §1
# P. aeruginosa MSC17707 = assay: MIC, agar plate dilution method, P. aeruginosa MSC17707; assay type: cell-based, Pseudomonas aeruginosa; details: for MIC: Pseudomonas aeruginosa, MSC17707, P. aeruginosa MSC17707, AMK-resistant, read-out: minimal inhibitory concentration (MIC)
# Method in brief: as §1
# S. aureus RN4220/pMS520 = assay: MIC, agar plate dilution method, S. aureus RN4220/pMS520; assay type: cell-based, Staphylococcus aureus; details: for MIC: Staphylococcus aureus, MRSA, read-out: minimal inhibitory concentration (MIC), S. aureus RN4220/pMS520, MRSA
# Method in brief: as §1
# P. aeruginosa PAO1/GN315 = assay: MIC, agar plate dilution method, P. aeruginosa PAO1/GN315; assay type: cell-based, Pseudomonas aeruginosa; details: for MIC: Pseudomonas aeruginosa, read-out: minimal inhibitory concentration (MIC), P. aeruginosa PAO1/GN315, AMK-resistant
# Method in brief: as §1
# P. aeruginosa PAO1 = assay: MIC, agar plate dilution method, P. aeruginosa PAO1; assay type: cell-based, Pseudomonas aeruginosa; details: for MIC: Pseudomonas aeruginosa, PAO1, P. aeruginosa PAO1, Sensitive bacterium, read-out: minimal inhibitory concentration (MIC)
# Method in brief: as §1
# [3] = system: K. pneumoniae ATCC BAA-2146; assay: MIC, agar plate dilution method, K. pneumoniae ATCC BAA-2146; assay type: cell-based, Klebsiella pneumoniae; details: for MIC: Klebsiella pneumoniae, ATCCBAA2146, K. pneumoniae ATCC BAA-2146, NDM-producing strain, read-out: minimal inhibitory concentration (MIC)
# Method in brief: as §1
# P. aeruginosa MSC01035 = assay: MIC, agar plate dilution method, P. aeruginosa MSC01035; assay type: cell-based, Pseudomonas aeruginosa; details: P. aeruginosa MSC01035, ABK-resistant; for MIC: Pseudomonas aeruginosa, read-out: minimal inhibitory concentration (MIC)
# Method in brief: as §1
# E. faecium ATCC19434 = assay: MIC, agar plate dilution method, E. faecium ATCC19434; assay type: cell-based, Enterococcus faecium; details: for MIC: Enterococcus faecium, ATCC19434, E. faecium ATCC19434, read-out: minimal inhibitory concentration (MIC)
# Method in brief: as §1
SMILES,MIC [1] [µg/mL],MIC [2] [µg/mL],MIC (S. aureus MF490) [µg/mL],MIC (E. coli JM109/pMW218) [µg/mL],MIC (S. aureus RN4220) [µg/mL],MIC (S. marcescens GN6944) [µg/mL],MIC (S. marcescens TH-0447) [µg/mL],MIC (P. aeruginosa MSC17707) [µg/mL],MIC (S. aureus RN4220/pMS520) [µg/mL],MIC (P. aeruginosa PAO1/GN315) [µg/mL],MIC (P. aeruginosa PAO1) [µg/mL],MIC [3] [µg/mL],MIC (P. aeruginosa MSC01035) [µg/mL],MIC (E. faecium ATCC19434) [µg/mL],other results
"CNC1C(O[C@H]2OC(CO)[C@@H](NC(=O)[C@@H](C)N)[C@H](O)C2O)O[C@H]2CC(N)[C@@H](O[C@@H]3C(N)C[C@@H](N)C(O)[C@H]3O)OC2C1O (stereo partly drawn) [Compound V1-d, 4″-N-(D-alanyl)apramycin]",2,8,16,2,4,8,16,8,4,8,4,2,8,64,
"CNC1C(O[C@H]2OC(CO)[C@@H](NC(=O)[C@@H](N)CO)[C@H](O)C2O)O[C@H]2CC(N)[C@@H](O[C@@H]3C(N)C[C@@H](N)C(O)[C@H]3O)OC2C1O (stereo partly drawn) [Compound V1-e, 4″-N-(L-seryl)apramycin]",4,16,32,2,8,8,16,8,8,8,8,2,8,64,
"CN[C@@H]1[C@@H](O[C@H]2O[C@H](CO)[C@@H](NC(=O)[C@H](N)CO)[C@H](O)[C@H]2O)O[C@H]2C[C@@H](N)[C@@H](O[C@H]3[C@H](O)[C@@H](O)[C@H](N)C[C@@H]3N)O[C@@H]2[C@@H]1O [Compound V1-f, 4″-N-(D-seryl)apramycin]",,,,,,,,,,,,,,,"minimal inhibitory concentration (MIC) ([1]; K. pneumoniae ATCC BAA-1705, KPC-producing strain): 4 µg/mL; minimal inhibitory concentration (MIC) ([2]; A. baumannii ATCC BAA-1710, MDRA): 8 µg/mL; minimal inhibitory concentration (MIC) (S. aureus MF490; S. aureus MF490, MRSA): 32 µg/mL; minimal inhibitory concentration (MIC) (E. coli JM109/pMW218; E. coli JM109/pMW218, Sensitive bacterium): 2 µg/mL; minimal inhibitory concentration (MIC) (S. aureus RN4220; S. aureus RN4220, Sensitive bacterium): 8 µg/mL; minimal inhibitory concentration (MIC) (S. marcescens GN6944): 16 µg/mL; minimal inhibitory concentration (MIC) (S. marcescens TH-0447; S. marcescens TH-0447, AMK-resistant): 16 µg/mL; minimal inhibitory concentration (MIC) (P. aeruginosa MSC17707; P. aeruginosa MSC17707, AMK-resistant): 8 µg/mL; minimal inhibitory concentration (MIC) (S. aureus RN4220/pMS520; S. aureus RN4220/pMS520, MRSA): 8 µg/mL; minimal inhibitory concentration (MIC) (P. aeruginosa PAO1/GN315; P. aeruginosa PAO1/GN315, AMK-resistant): 8 µg/mL; minimal inhibitory concentration (MIC) (P. aeruginosa PAO1; P. aeruginosa PAO1, Sensitive bacterium): 4 µg/mL; minimal inhibitory concentration (MIC) ([3]; K. pneumoniae ATCC BAA-2146, NDM-producing strain): 2 µg/mL; minimal inhibitory concentration (MIC) (P. aeruginosa MSC01035): 8 µg/mL; minimal inhibitory concentration (MIC) (E. faecium ATCC19434; E. faecium ATCC19434): 64 µg/mL"
"CNC1C(O[C@H]2OC(CO)[C@@H](NC(=O)CCN)[C@H](O)C2O)O[C@H]2CC(N)[C@@H](O[C@@H]3C(N)C[C@@H](N)C(O)[C@H]3O)OC2C1O (stereo partly drawn) [Compound V1-g, 4″-N-(β-alanyl)apramycin]",2,8,8,1,4,8,16,4,2,4,4,1,4,32,
"CNC1C(O[C@H]2OC(CO)[C@@H](NC(=O)[C@@H](O)CN)[C@H](O)C2O)O[C@H]2CC(N)[C@@H](O[C@@H]3C(N)C[C@@H](N)C(O)[C@H]3O)OC2C1O (stereo partly drawn) [Compound V1-h, 4″-N-(L-isoseryl)apramycin]",2,8,8,2,4,8,16,4,4,8,16,2,4,32,
